Converted amounts (≈) assume the structure as drawn. “And” between values parts separate entries of the source, which are not always exact repeats. Equal values may be shown once.
Assays:
physchem = details: aqueous with cosolvent or surfactant or cyclodextrin, kinetic from dmso stock
Fusarium oxysporum = experiment: Synergistic Growth Inhibition Assay (MIC / FIC index), Fusarium oxysporum; format: cell-based; details: individual compound alone
Procedure: (§1) In some embodiments, the synergistic action between the pesticidal active ingredient, and the at least one C6-C10 (or alternatively C11 or C12) saturated or unsaturated aliphatic acid components of the pesticidal compositions according to embodiments of the present disclosure was tested using a Synergistic Growth Inhibition Assay, which is derived from and related to a checkerboard assay as is known in the art for testing of combinations of antimicrobial agents. In the Synergistic Growth Inhibition Assay used in accordance with some embodiments of the present disclosure, multiple dilutions of combinations of pesticidal active ingredient and at least one C6-C10 saturated or unsaturated aliphatic acid agents are tested in individual cells for inhibitory activity against a target pest or pathogenic organism. In one such embodiment, the combinations of pesticidal active ingredient and C6-C10 (or alternatively C11 or C12) saturated or unsaturated aliphatic acid agents may preferably be tested in decreasing concentrations. In a further such embodiment, the combinations of pesticidal active ingredient and C6-C10 (or alternatively C11 or C12) saturated or unsaturated aliphatic acid agents may be tested in increasing concentrations. These multiple combinations of the pesticidal active ingredient and at least one C6-C10 (or alternatively C11 or C12) saturated or unsaturated aliphatic acid agents may be prepared in 96-well microtiter plates. In one such embodiment, the Synergistic Growth Inhibition Assay then comprises rows which each contain progressively decreasing concentrations of the pesticidal active ingredient and one or more C6-C10 (or alternatively C11 or C12) saturated or unsaturated aliphatic acid agents to test for the MIC of the agents in combination at which growth of the target pest or pathogen is inhibited. Thus, each well of the microtiter plate is a unique combination of the two agents, at which inhibitory efficacy of the combination against the target pest or pathogen can be determined.
In one embodiment according to the present disclosure, for each row of microtiter cells in the Synergistic Growth Inhibition Assay, the FIC index is calculated from the lowest concentration of the pesticidal active ingredient and one or more C6-C10 saturated or unsaturated aliphatic acid agents necessary to inhibit growth of a target pest or pathogen. The FIC of each component is derived by dividing the concentration of the agent present in that well of the microtiter plate by the minimal inhibitory concentration (MIC) needed of that agent alone to inhibit growth of the target pest or pathogen. The FIC index is then the sum of these values for both agents in that well of the microtiter plate. The FIC index is calculated for each row as follows:
FICindex=MICa/MICA+MICb/MICB
Fractional inhibitory concentration indices may then used as measure of synergy. […] When the FIC index is equal to 1, the combination is additive.
Then, serial dilutions of these initial compositions in successive wells in the row of the microtiter plate were used to assay the pesticidal composition under the same conditions to determine the concentration of the composition combining the two agents corresponding to the microtiter well in which growth inhibition of the target pest or organism ceases. […]

Sclerotinia sclerotiorum = experiment: Synergistic Growth Inhibition Assay (MIC / FIC index), Sclerotinia sclerotiorum; format: cell-based
Procedure: as §1, with “In one such embodiment, the Synergistic Growth Inhibition Assay then comprises rows which each contain progressively decreasing concentrations of the pesticidal active ingredient and one or more C6-C10 (or alternatively C11 or C12) saturated or unsaturated aliphatic acid agents to test for the MIC of the agents in combination at which growth of the target pest or pathogen is inhibited.” left out
(§2) In one embodiment according to the present disclosure, for each row of microtiter cells in the Synergistic Growth Inhibition Assay, the FIC index is calculated from the lowest concentration of the pesticidal active ingredient and one or more C6-C10 saturated or unsaturated aliphatic acid agents necessary to inhibit growth of a target pest or pathogen. […] The FIC index is calculated for each row as follows: […]

Botrytis cinerea = experiment: Synergistic Growth Inhibition Assay (MIC / FIC index), Botrytis cinerea; format: cell-based
Procedure: as §1, with “In one such embodiment, the Synergistic Growth Inhibition Assay then comprises rows which each contain progressively decreasing concentrations of the pesticidal active ingredient and one or more C6-C10 (or alternatively C11 or C12) saturated or unsaturated aliphatic acid agents to test for the MIC of the agents in combination at which growth of the target pest or pathogen is inhibited.” left out
as §2

[1] = Solubility / effective solubilized concentration in 10% DMSO/90% PDB by HPLC; details: aqueous with cosolvent or surfactant or cyclodextrin, kinetic from dmso stock
[2] = effective solubilized concentration of working stock solution, DMSO stock diluted 10-fold in PDB, verified by HPLC
[3] = solubility, in 10% DMSO/90% PDB, HPLC
[4] = 10% DMSO/90% potato dextrose broth (PDB)

Fc1ccc([C@]2(Cn3cncn3)O[C@H]2c2ccccc2Cl)cc1 (racemic) [Epoxiconazole]
solubility (physchem): 30 µg/mL (≈ 91 µM)

C/C=C/C=C/C(=O)[O-].[K+] [(2E,4E)-2,4-hexadienoic acid, potassium salt]
MIC (A) / MIC (B) of the compound used alone (Fusarium oxysporum; 24 hour incubation): 625 µg/mL

CO/C=C(/C(=O)OC)c1ccccc1Oc1cc(Oc2ccccc2C#N)ncn1 [Azoxystrobin]
MIC (A) / MIC (B) of the compound used alone (Fusarium oxysporum; incubation period of 48 hours): 75 µg/mL and 150 µg/mL
MIC (A) / MIC (B) of the compound used alone (Sclerotinia sclerotiorum; individual compound alone, incubation period of 7 days): 150 µg/mL
MIC (A) / MIC (B) of the compound used alone (Botrytis cinerea; individual compound alone, incubation period of 48 hours): 37.5 µg/mL and 75 µg/mL

N#Cc1c(Cl)c(Cl)c(Cl)c(C#N)c1Cl [Chlorothalonil]
solubility [1, 2]: 2 µg/mL (≈ 7.52 µM)

CCCCCCCCCC(=O)O [Decanoic acid, decanoic acid]
MIC (A) / MIC (B) of the compound used alone (Fusarium oxysporum; 24 hour incubation): 250 µg/mL
MIC (Botrytis cinerea; Botrytis cinerea, 96 h, Compound B alone, incubation 4 days): 500 µg/mL

CCCCCCCCCC(=O)[O-].[K+] [Decanoic acid, potassium salt, decanoic acid, potassium salt]
MIC (A) / MIC (B) of the compound used alone (Fusarium oxysporum; 24 hour incubation): 78.12 µg/mL

CCCCCCCCCCCC(=O)O [Dodecanoic acid, dodecanoic acid]
MIC (B) (Sclerotinia sclerotiorum; Compound B alone, incubation 7 days): 50 µg/mL
MIC (B) (Botrytis cinerea; Compound B alone, incubation 48 hours): 50 µg/mL

N#Cc1c[nH]cc1-c1cccc2c1OC(F)(F)O2 [Fludioxonil, fludioxonil]
solubility [1, 2]: 21 µg/mL (≈ 84.6 µM)
solubility [1, 3]: 15.4 µg/mL (≈ 62 µM)

CCCCCC(=O)O [Hexanoic acid, hexanoic acid]
MIC (A) / MIC (B) of the compound used alone (Fusarium oxysporum; incubation period of 48 hours): 156.2 µg/mL

COCC(=O)N(c1c(C)cccc1C)C(C)C(=O)OC (centres unmarked) [Metalaxyl]
solubility [1, 2]: 316 µg/mL (≈ 1130 µM)

CCCC1COC(Cn2cncn2)(c2ccc(Cl)cc2Cl)O1 (centres unmarked) [Propiconazole]
solubility [1, 4]: 89 µg/mL (≈ 260 µM)

COC(=O)N(OC)c1ccccc1COc1ccn(-c2ccc(Cl)cc2)n1 [Pyraclostrobin, pyraclostrobin]
solubility [1, 2]: 15 µg/mL (≈ 38.7 µM)
solubility [1, 3]: 15.4 µg/mL (≈ 39.7 µM)

C/C=C(/C)C(=O)O[C@H]1C[C@@H](OC(C)=O)[C@@]2(C)CO[C@H]3[C@H]4O[C@@H]5C[C@@H](c6ccoc6)C(C)=C5[C@@]4(C)[C@H](CC(=O)OC)[C@]1(C)[C@@H]32 [Salannin]
MIC (Sclerotinia sclerotiorum; Sclerotinia sclerotiorum, […], Compound A alone, incubation 7 days): 500 µg/mL

CC(C)(C)C(O)(CCc1ccc(Cl)cc1)Cn1cncn1 (centres unmarked) [Tebuconazole]
solubility [1, 4]: 450 µg/mL (≈ 1460 µM)
